Reference: patent US5302611A, “Oxindole alkaloids having properties stimulating the immunologic system & preparation containing the same” (Keplinger; Klaus, priority 1980, dated 1994)
Like-named read-outs stand apart in the source and are kept apart here.

Tests used:
diluted whole blood = assay: Chemiluminescence test (CL), whole blood method; type: cell-based; details: Homo sapiens, 1 h, read-out: Percental increase of the CL-response
Procedure: (§1) 2. Chemiluminescence test (CL)
(§2) The low light yield of such CL-reactions of phagocytised cells is increased in the in-vitro-experiment by the addition of substances which are oxydated by activated oxygen and thus produce light of a certain wavelength, which can be physically measured. Suitable substrates are luminole (5-amino-2,3-dihydro-1,4-phthalazindione) and lucigenine (10,10'-dimethyl-9,9'-biacri-diniumdinitrate), which increase the CL-response by 10^3 times.
(§3) All tests were carried out in 6-channel-Biolumat LB 9505 of Berthold, connected to an Apple-computer with a CL-evaluation program of Berthold.
(§4) Lucigenine was chosen for light amplification which emits photons at a narrow wavelength distribution of about 510 nm and thus almost lies in the optimum of the photo-multiplier sensitivity.
(§5) The pH-value of the measuring solution should be between 7.1 and 7.4, which is obtained by the addition of veronal-buffered salt solution. The test substances were dissolved in phosphate-buffered salt solution, (PBS-buffer). Both buffer systems contain 0.1% of glucose, because the "respiratory-burst"-reaction is connected with an increase of the glucose-metabolism.
(§6) Opsonised zymosan was used for phagocyte-activation. The measurement of the CL of isolated granulocytes was carried out with native blood of isolated polymorphonuclear leucocytes (PMNL), which had been adjusted with PBS-Puffer to 10^6 […].
(§7) The test substances were first together with the isolated granulocytes or with the whole blood incubated at room temperature for 10 minutes and then in biclumate for 10 minutes at 37° C. After addition of the opsonised zymosan, measurement in the biolumat at 37° C. started. […] A curve which was typical for each substance was obtained. The integrated surfaces are directly proportional to the intensity of the CL-response.
(§8) For determining the stimulation of the "respiratory-burst" of granulocytes,which had taken place, the same formula as for the granulocytic test was used.
20 ml of native blood were mixed with 30 mg EDTA as anti-coagulant and diluted 1:100 with PBS-buffer.
460 μl of veronal-buffered salt solution
200 μl of diluted whole blood
(§9) 100 μl of lucigenine-solution
(§10) 200 μl of substance dissolved in PBS and PBS as control
(§11) After preincubation at room temperature for 10 minutes and subsequent incubation for 10 minutes at 37° C. in 6-channel-Biolumat, 40 μl of opsonised zymosan were admixed under through stirring and measurement was started. Measuring was stopped after 60 minutes.
(§12) The CL-response of the samples was stored by a computer over the measuring period, and after measurement illustrated in the form of a curve. By integration of the surfaces, the intensity of the CL-response of the respective sample was obtained in cpm.
(§13) The increase S of the CL-response by a test substance was calculated according to [formula]

[1] = tested on: isolated polymorphonuclear leucocytes (PMNL); assay: Chemiluminescence test (CL), PMNL method (isolated granulocytes); type: cell-based, human; details: for Peak-Maximum: control 2.12; for tmax: control 50.0
Procedure: as §1, §2, §3, §4, §5, §6, §7, §8
20 ml of native blood were mixed with 30 mg EDTA. 15 ml of this blood were mixed with 7 ml of dextran in a syringe and allowed to stand at room temperature for 30 minutes. The leucocyte-containing supernatant was transfered into a sterile centrifugal tube and centrifugated at 1000 r.p.m. for 10 minutes. The deposit consisted of leucocytes and residual portions of erythrocytes, which can influence measurement by their colour quench. The residual erythrocytes were removed by hypotonic lyis. For this purpose, the deposit was suspended in 0.25% of NaCl-solution and agitated on the whirlmix for 20 seconds. Then 20 ml of 1.6% NaCl-solution were admixed and agitated again. After centrifugation at 2000 r.p.m. for 10 minutes, the supernatant was sucked off and the whole process was repeated twice. Subsequently, the deposit was suspended in 2 ml of PBS-buffer and diluted 1:10 with Turcks-solution. It was adjusted in the Neubauer's chamber with PBS-buffer to 10^6 -cells/ml.
630 μl of veronal-buffered salt solution
as §9, §10, §11, §12, §13

[2] = tested on: neutrophil granulocytes (PMNL); assay: Granulocytic test modified after BRANDT (phagocytosis of yeast particles); type: cell-based, human; details: up to dilutions of 10^-6 %
Text: 1. […] They represent about 60-70% of all leucocytes in the human blood. The phagocytosis effect of all these granulocytes can be measured in vitro according to a method developed by BRAND (Scand. J. Haematol. Suppl. 2, 1967) and modified by TYMPNER (Munich Med. Weekly 8, 251, 1978).
A granulocytic fraction is taken from the blood of healthy probands (PMNL--abbreviation of polymorphonuclearleucocytes)
This PMNL-fraction mainly consists of neutrophil granulocytes and few eosinophil and basophil granulocytes as well as of lymphocytes, monocytes and thrombocytes. After addition of a defined amount of yeast cells (Saccharomyces cerevisiae) and the substance to be tested incubation is carried out for 10 minutes at 37° C., the suspension is spread on an object carrier and incubated at room temperature for further 35 minutes. Then the spreads are coloured and microscopically evaluated. 100 PMNL-cells are selected per object carrier, and it is determined how many yeast particles of the individual cells have been phagocytised. The phagocytosis index indicates the average number of phagocytised yeast particles.
15 ml of heparinised venous blood of clinically healthy adults was diluted with 1.5% of dextran T 500 (Pharmacia) 2:1 and allowed to stand at room temperature for 30 minutes. The supernatant containing leucocytes was injected into a sterile plastic tube and centrifugated for 7 minutes at 500 r.p.m. The granulocytes in the deposit were washed twice with 5 ml of PPM I-buffer in each case. Then the granulocytes were suspended in about 5 ml of buffer and adjusted in the Neubauer's chamber to a concentration of 5×10^6 cells/ml.
Yeast suspended in 0.9% of NaCl was heated to 100° C., three times filtered through gaze and adjusted to 3-5×10^7 particles/ml.
The serum of 5 clinically healthy adults was mixed and frozen in portions of 5 ml. For the test dilution was carried out with 0.9% of NaCl 1:10.
The test was carried out as follows: 0.2 ml of substance dissolved in 0.9% of NaCl and 0.2 ml of 0.9% NaCl, as a control substance, were pipetted to 0.2 ml, each, of pool serum, granulocyte- and yeast suspension and first incubated for 10 minutes at 37° C. Then 0.5 ml of each preparation were applied to an object carrier and incubated in a humid chamber at room temperature for further 35 minutes. Granulocytes deposited, the supernatant was carefully washed with 0.9% of NaCl, and the object carrier was dried with a dryer.
100 granulocytes were counted out per object carrier, and it was determined how many yeast particles of the individual cells had been phagocytised. The phagocytosis index (PJ) indicates the average number of yeast particles per granulocyte. The increase (S) of the phagocytosis activity in the blank value was calculated according to: [formula]

macrophage-phagocytosis = details: concentrations of 10^-4 % and 10^-5 %; cited from earlier work
[3] = tested on: ascites cells of Walker-250-carcinosarcoma; assay: Cytotoxicity test by the 3H-thymidine-incorporation test on ascites cells; type: cell-based, rats; details: Rattus norvegicus, read-out: mean value of the inhibition of 3H-thymidine incorporation
Text: 5. Cytotoxicity test by the ^3 H-thymidine-incorporation test on ascites cells
Since in the granulocytic test some substances lyse the granulocytes at high concentrations we examined the cell-damaging effect at the model of the ^3 H-thymidine-incorporation test in ascites cells to be able to find a possible relation between the phagocytosis increase and cytotoxicity in potential active substances.
In this in-vitro-test system according to WEITZEL et al (H oppe-Seyler's Z. physiolog. Chem. 348, 433, 1967) the cytotoxicity of substances by inhibition of the DNA-synthesis of tumour cells can be numerically determined by the changed incorporation rates of ^3 H-thymidine in ascites cells of Walter-250-carcinos arcoma of rats.
The test was carried out as follows: 3 ml of cell suspension of Walker-250-carcinosarcoma-ascites were mixed with 10 ml of MEDIUM L-15 (Boehringer) in a 50 ml centrifugal glass and centrifugated for 10 minutes. The supernatant was decanted and the centrifugal glass was filled up with medium to 1 cm below the rim. From the stirred cell suspension 1 ml (corresponds to 2×10^6 cells/ml) per sample was given into a centrifugal glass and 500 μl of the test solution were added, the control test was carried out with 500 μl of medium. […] The filters were given in polyethylene flasks and the activities were measured in toluene-scintillator. […]

[4] = isolated granulocytes, concentration 10^-4 %
[5] = isolated granulocytes, concentration 10^-5 %
[6] = isolated granulocytes, concentration 10^-6 %
[7] = isolated granulocytes, concentration 10^-7 %
[8] = isolated granulocytes, concentration 10^-8 %

COc1cccc2c1cc([N+](=O)[O-])c1c(C(=O)O)cc3c(c12)OCO3 [aristolochic acid]
activation at 0.001 % (diluted whole blood; concentration 10^-3 %): 51.9% | activation at 0.0001 % (diluted whole blood; concentration 10^-4 %): 19.2% | activation at 1e-05 % (diluted whole blood; concentration 10^-5 %): 21.8% | activation at 1e-06 % (diluted whole blood; concentration 10^-6 %): 14% | activation at 1e-07 % (diluted whole blood; concentration 10^-7 %): 5.5% | activation at 0.0001 % ([1]; Homo sapiens, 1 h, PMNL, concentration 10^-4 %, read-out: Percental increase of the CL-response): 85.1% | activation at 1e-05 % ([1]; Homo sapiens, 1 h, PMNL, concentration 10^-5 %, read-out: Percental increase of the CL-response): 93.5% | activation at 1e-06 % ([1]; Homo sapiens, 1 h, PMNL, concentration 10^-6 %, read-out: Percental increase of the CL-response): 68.3% | activation at 1e-07 % ([1]; Homo sapiens, 1 h, PMNL, concentration 10^-7 %, read-out: Percental increase of the CL-response): 61.9% | activation at 1e-08 % ([1]; Homo sapiens, 1 h, PMNL, concentration 10^-8 %, read-out: Percental increase of the CL-response): 58.7% | activation at 1e-09 % ([1]; Homo sapiens, 1 h, PMNL, concentration 10^-9 %, read-out: Percental increase of the CL-response): 31.3% | activation at 0.0001 % ([1]; Homo sapiens, PMNL, 1 h, isolated granulocytes, concentration 10^-4 %, read-out: Increase of CL-response): 126% | activation at 1e-05 % ([1]; Homo sapiens, PMNL, 1 h, isolated granulocytes, concentration 10^-5 %, read-out: Increase of CL-response): 160% | activation at 1e-06 % ([1]; Homo sapiens, PMNL, 1 h, isolated granulocytes, concentration 10^-6 %, read-out: Increase of CL-response): 69.8% | activation at 1e-07 % ([1]; Homo sapiens, PMNL, 1 h, isolated granulocytes, concentration 10^-7 %, read-out: Increase of CL-response): 52.8% | activation at 1e-08 % ([1]; Homo sapiens, PMNL, 1 h, isolated granulocytes, concentration 10^-8 %, read-out: Increase of CL-response): 93.4% | Peak-Maximum [1, 4]: 4.80 cpm × 10^5 | tmax [1, 4]: 30.0 min | Peak-Maximum [1, 5]: 5.52 cpm × 10^5 | tmax [1, 5]: 32.6 min | Peak-Maximum [1, 6]: 3.40 cpm × 10^5 | tmax [1, 6]: 34.6 min | Peak-Maximum [1, 7]: 3.24 cpm × 10^5 | tmax [1, 7]: 32.0 min | Peak-Maximum [1, 8]: 4.10 cpm × 10^5 | tmax [1, 8]: 29.3 min | concentration of the efficiency maximum in the CL-test ([1]; isolated granulocytes, lower by a power of ten than in the granulocytic test): 10^-5%

CC[C@]1(O)C[C@H]2CN(CCc3c([nH]c4ccccc34)[C@@](C(=O)OC)(c3cc4c(cc3OC)N(C=O)[C@H]3[C@@](O)(C(=O)OC)[C@H](OC(C)=O)[C@]5(CC)C=CCN6CC[C@]43[C@@H]65)C2)C1 [vincristine, reference compound]
effect in the granulocytic test [2]: no effects have been found | in-vitro-inhibition of the macrophage-phagocytosis (macrophage-phagocytosis): in-vitro-inhibitionof the macrophage-phagocytosis has been found

CN(Cc1cnc2nc(N)nc(N)c2n1)c1ccc(C(=O)N[C@@H](CCC(=O)O)C(=O)O)cc1 [Methotrexat®, N-[4-[[(2,4-Diamino-6-pteridinyl)methyl]methylamino]benzoyl]-L-glutamic acid]
inhibition at 2000 µg/mL [3]: 43%
